Measured values taken from PubChem BioAssay AID248 (DTP/NCI, 2004).
“And” between values parts separate entries of the source, which are not always exact repeats. Equal entries are not always repeated. Inconclusive results and toxic doses are left out. Cut-off read from the data, not from the text of the source: active = T/C of 150% or more; inactive = T/C below 125%. Square brackets hold non-standard residues; d marks the D form. Peptide text beside a SMILES is read from it. * marks the point of attachment. ξ: configuration not given here. Cbz = O=C(OCc1ccccc1)*; ξNle = CCCCC(N)C(=O)O

System: L1210 leukemia ip in BDF1 mice, survival T/C
Test: NCI In Vivo Anticancer Drug Screen. Data for tumor model L1210 Leukemia (intraperitoneal) in B6D2F1 (BDF1) mice
Conditions: endpoint: mean survival time, higher = longer survival
Summary of the method: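 Transplantable tumor model; survival measured in treated vs vehicle control mice. Value = treated/control.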

[1] = dose: 6.25 mg/kg/injection, schedule: Q04DX003 (ip), vehicle: saline
[2] = dose: 12.5 mg/kg/injection, schedule: Q04DX003 (ip), vehicle: saline
[3] = dose: 50.0 mg/kg/injection, schedule: Q01DX001 (ip), vehicle: carboxymethylcellulose (CMC)
[4] = dose: 100.0 mg/kg/injection, schedule: Q01DX001 (ip), vehicle: carboxymethylcellulose (CMC)
[5] = dose: 200.0 mg/kg/injection, schedule: Q01DX001 (ip), vehicle: carboxymethylcellulose (CMC)
[6] = dose: 400.0 mg/kg/injection, schedule: Q01DX001 (ip), vehicle: carboxymethylcellulose (CMC)
[7] = dose: 100.0 mg/kg/injection, schedule: Q01DX001 (ip), vehicle: Klucel (hydroxypropylcellulose) (HPC)
[8] = dose: 200.0 mg/kg/injection, schedule: Q01DX001 (ip), vehicle: Klucel (hydroxypropylcellulose) (HPC)
[9] = dose: 400.0 mg/kg/injection, schedule: Q01DX001 (ip), vehicle: Klucel (hydroxypropylcellulose) (HPC)
[10] = dose: 100.0 mg/kg/injection, schedule: Q01DX009 (ip), vehicle: Klucel (hydroxypropylcellulose) (HPC)
[11] = dose: 200.0 mg/kg/injection, schedule: Q01DX009 (ip), vehicle: Klucel (hydroxypropylcellulose) (HPC)
[12] = dose: 400.0 mg/kg/injection, schedule: Q01DX009 (ip), vehicle: Klucel (hydroxypropylcellulose) (HPC)
[13] = dose: 100.0 mg/kg/injection, schedule: Q01DX009 (ip), vehicle: saline with Tween-80
[14] = dose: 200.0 mg/kg/injection, schedule: Q01DX009 (ip), vehicle: saline with Tween-80
[15] = dose: 400.0 mg/kg/injection, schedule: Q01DX009 (ip), vehicle: saline with Tween-80
[16] = dose: 50.0 mg/kg/injection, schedule: Q01DX009 (ip), vehicle: saline with Tween-80
[17] = dose: 100.0 mg/kg/injection, schedule: Q04DX003 (ip), vehicle: Klucel (hydroxypropylcellulose) (HPC)
[18] = dose: 200.0 mg/kg/injection, schedule: Q04DX003 (ip), vehicle: Klucel (hydroxypropylcellulose) (HPC)
[19] = dose: 400.0 mg/kg/injection, schedule: Q04DX003 (ip), vehicle: Klucel (hydroxypropylcellulose) (HPC)

Measured: T/C

CN1C=c2c3c(ccc2=C2C=CC4C=C5OCOC5=CC4=C21)OCO3 (centres undefined)
inactive: dose: 2.0 mg/kg/injection, schedule: Q01DX015 (ip), vehicle: saline 97 % of control | dose: 4.0 mg/kg/injection, schedule: Q01DX015 (ip), vehicle: saline 91 % of control | dose: 5.0 mg/kg/injection, schedule: Q01DX001 (ip), vehicle: saline 96 % of control | [1] 92 % of control | dose: 7.5 mg/kg/injection, schedule: Q01DX009 (ip), vehicle: saline 97 % of control | dose: 8.0 mg/kg/injection, schedule: Q01DX015 (ip), vehicle: saline 92 % of control | dose: 10.0 mg/kg/injection, schedule: Q01DX001 (ip), vehicle: saline 96 % of control | [2] 88 % of control | dose: 15.0 mg/kg/injection, schedule: Q01DX009 (ip), vehicle: saline 100 % of control | dose: 16.0 mg/kg/injection, schedule: Q01DX015 (ip), vehicle: saline 100 % of control | dose: 20.0 mg/kg/injection, schedule: Q01DX001 (ip), vehicle: saline 94 % of control | dose: 25.0 mg/kg/injection, schedule: Q04DX003 (ip), vehicle: saline 95 % of control and 90 % of control | dose: 30.0 mg/kg/injection, schedule: Q01DX009 (ip), vehicle: saline 102 % of control

CCN1c2ccccc2S(=O)c2cc([N+](=O)[O-])ccc21 (centres undefined)
inactive: [3] 93 % of control | [4] 87 % of control | [5] 96 % of control | [6] 98 % of control

CCC1CSC(=S)N1 (centres undefined)
inactive: dose: 3.12 mg/kg/injection, schedule: Q01DX009 (ip), vehicle: acetone 92 % of control | dose: 3.12 mg/kg/injection, schedule: Q04DX003 (ip), vehicle: saline 103 % of control | dose: 6.25 mg/kg/injection, schedule: Q01DX009 (ip), vehicle: acetone 102 % of control | [1] 101 % of control | [2] 102 % of control

NC(CCl)=NCC1CCCC1
inactive: dose: 12.5 mg/kg/injection, schedule: Q04DX002 (ip), vehicle: Klucel (hydroxypropylcellulose) (HPC) 96 % of control | dose: 25.0 mg/kg/injection, schedule: Q04DX002 (ip), vehicle: Klucel (hydroxypropylcellulose) (HPC) 96 % of control | dose: 50.0 mg/kg/injection, schedule: Q04DX002 (ip), vehicle: Klucel (hydroxypropylcellulose) (HPC) 96 % of control

Clc1ccc(/C=C/c2ccccc2)cc1
inactive: dose: 44.0 mg/kg/injection, schedule: Q01DX001 (ip), vehicle: other 96 % of control | dose: 66.0 mg/kg/injection, schedule: Q01DX001 (ip), vehicle: other 105 % of control | dose: 100.0 mg/kg/injection, schedule: Q01DX001 (ip), vehicle: other 100 % of control | dose: 150.0 mg/kg/injection, schedule: Q01DX001 (ip), vehicle: other 97 % of control | dose: 200.0 mg/kg/injection, schedule: Q01DX001 (ip), vehicle: other 100 % of control | dose: 400.0 mg/kg/injection, schedule: Q01DX001 (ip), vehicle: other 111 % of control

COC1(OC)C2C=CC1C1C(=O)CC1C(=O)C2 (centres undefined)
inactive: dose: 75.0 mg/kg/injection, schedule: Q01DX009 (ip), vehicle: Klucel (hydroxypropylcellulose) (HPC) 108 % of control | [7] 100 % of control | dose: 150.0 mg/kg/injection, schedule: Q01DX009 (ip), vehicle: Klucel (hydroxypropylcellulose) (HPC) 113 % of control | [8] 103 % of control | dose: 300.0 mg/kg/injection, schedule: Q01DX009 (ip), vehicle: Klucel (hydroxypropylcellulose) (HPC) 105 % of control | [9] 90 % of control

c1ccc(-c2nnc3ccccn23)cc1
inactive: [7] 102 % of control | [8] 106 % of control

O=C(O)C(Cc1ccccc1)Cc1ccccc1
inactive: dose: 100.0 mg/kg/injection, schedule: Q01DX001 (ip), vehicle: saline 97 % of control | dose: 200.0 mg/kg/injection, schedule: Q01DX001 (ip), vehicle: saline 103 % of control | dose: 400.0 mg/kg/injection, schedule: Q01DX001 (ip), vehicle: saline 109 % of control

CCOC(=O)c1ccc(NC(=S)NCc2cccnc2)cc1
inactive: [10] 106 % of control | [11] 97 % of control | [12] 102 % of control

COc1ccc(-c2cc(Cl)c([N+](=O)[O-])cc2[N+](=O)[O-])cc1
inactive: [3] 100 % of control | [4] 107 % of control | [5] 110 % of control | [6] 102 % of control

COc1ccc(C)cc1NC(=O)Nc1cccc(C(F)(F)F)c1
inactive: [10] 92 % of control | [11] 86 % of control | [12] 95 % of control

COc1ccc(-c2cc(C(=O)O)c3ccc(C)cc3n2)cc1
inactive: [13] 103 % of control | [14] 95 % of control | [15] 96 % of control

CN1CCCCCC1=O
inactive: dose: 100.0 mg/kg/injection, schedule: Q04DX003 (ip), vehicle: saline 100 % of control | dose: 200.0 mg/kg/injection, schedule: Q04DX003 (ip), vehicle: saline 111 % of control | dose: 400.0 mg/kg/injection, schedule: Q04DX003 (ip), vehicle: saline 101 % of control

COc1cccc(C(C)(C)CC(=O)O)c1
inactive: [16] 90 % of control | [13] 90 % of control | [14] 87 % of control

CCCCOC(=O)CCSCCC(=O)OCCCC
inactive: [13] 102 % of control | [14] 94 % of control | [15] 102 % of control

CC/C=C1\CCOC1=O
inactive: dose: 100.0 mg/kg/injection, schedule: Q04DX002 (ip), vehicle: saline 102 % of control | dose: 200.0 mg/kg/injection, schedule: Q04DX002 (ip), vehicle: saline 102 % of control | dose: 400.0 mg/kg/injection, schedule: Q04DX002 (ip), vehicle: saline 115 % of control

O=C(O)COc1ccc(Cl)cc1
inactive: [17] 97 % of control | [18] 100 % of control | [19] 100 % of control

Cc1ccc2ccccc2c1N(CC(=O)O)S(=O)(=O)c1ccccc1 (tested in a mixture with another compound)
inactive: dose: 100.0 mg/kg/injection, schedule: Q04DX003 (ip), vehicle: saline sonified 94 % of control | dose: 200.0 mg/kg/injection, schedule: Q04DX003 (ip), vehicle: saline sonified 94 % of control | dose: 400.0 mg/kg/injection, schedule: Q04DX003 (ip), vehicle: saline sonified 112 % of control

NC(=O)CCC(NC(=O)Cc1ccccc1)C(=O)O (centres undefined)
inactive: dose: 18.75 mg/kg/injection, schedule: Q01DX001 (ip), vehicle: Klucel (hydroxypropylcellulose) (HPC) 92 % of control | dose: 37.5 mg/kg/injection, schedule: Q01DX001 (ip), vehicle: Klucel (hydroxypropylcellulose) (HPC) 100 % of control | dose: 75.0 mg/kg/injection, schedule: Q01DX001 (ip), vehicle: Klucel (hydroxypropylcellulose) (HPC) 97 % of control

C/C(=N/O)c1ccc(C)s1
inactive: [4] 94 % of control | [5] 100 % of control | [6] 100 % of control

COc1ccccc1OC1CCCCC1OS(C)(=O)=O (centres undefined)
inactive: [7] 95 % of control | [10] 95 % of control | [17] 102 % of control | [8] 105 % of control | [11] 101 % of control | [18] 101 % of control | [9] 95 % of control | [12] 95 % of control | [19] 95 % of control

CC(C)=NC(=O)NO.[Cl][Zn][Cl]
inactive: dose: 15.0 mg/kg/injection, schedule: Q01DX001 (ip), vehicle: carboxymethylcellulose (CMC) 95 % of control | dose: 30.0 mg/kg/injection, schedule: Q01DX001 (ip), vehicle: carboxymethylcellulose (CMC) 89 % of control | dose: 60.0 mg/kg/injection, schedule: Q01DX001 (ip), vehicle: carboxymethylcellulose (CMC) 100 % of control

CCCCC(NC(=O)OCc1ccccc1)C(=O)NCC(=O)OCC (centres undefined) (Cbz-[ξNle]-Gly-OEt)
inactive: [16] 97 % of control | [13] 97 % of control | [14] 104 % of control
